The source of these data is PMC4133868 (BMB Reports, 2013).

Assay [1] concerns the target T1, t-bCblC (Bos taurus, UniProt Q5E9C8).
T1 sequence (Q5E9C8 1-244): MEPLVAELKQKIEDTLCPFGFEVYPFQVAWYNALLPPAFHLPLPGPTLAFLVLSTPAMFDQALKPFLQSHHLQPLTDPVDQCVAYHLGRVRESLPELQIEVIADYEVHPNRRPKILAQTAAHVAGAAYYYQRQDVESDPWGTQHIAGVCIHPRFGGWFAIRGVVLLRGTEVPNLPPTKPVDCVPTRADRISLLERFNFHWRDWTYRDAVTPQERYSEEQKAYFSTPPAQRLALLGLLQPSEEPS
The assay can be described thus: Isothermal titration calorimetry. The assay is classed as binding, bovine. On the technique in general: Isothermal titration calorimetry measures the heat released or taken up as one component is titrated into another.

Assay [2] concerns the target T2, f-bCblC (Bos taurus, UniProt Q5E9C8).
T2 sequence (Q5E9C8 1-280): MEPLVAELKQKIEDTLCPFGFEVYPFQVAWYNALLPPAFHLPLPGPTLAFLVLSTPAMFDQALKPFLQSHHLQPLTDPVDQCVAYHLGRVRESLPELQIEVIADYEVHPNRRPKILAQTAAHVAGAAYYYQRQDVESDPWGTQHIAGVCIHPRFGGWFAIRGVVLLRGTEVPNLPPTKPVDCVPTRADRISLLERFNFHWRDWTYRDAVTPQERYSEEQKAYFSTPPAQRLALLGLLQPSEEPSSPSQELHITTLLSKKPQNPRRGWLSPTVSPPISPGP

In assay [3] the target is T1, t-bCblC.
In assay [4] the target is T2, f-bCblC. In words: biochemical.
The target in assay [5] is T1, t-bCblC. The assay can be described thus: biochemical.
Assay [6] deals with T2, f-bCblC. The conditions noted are these: read-out: Kd of GSH for f-bCblC (ITC); cited from earlier work.
Setting [7] is: hyperbolic fit of ΔTm vs GSH concentration.

Broadly, the Kd is the equilibrium constant for the complex coming apart. The AC50 is the midpoint of the concentration-response curve, whichever way the signal moves. Take `N[C@@H](CCC(=O)N[C@@H](CS)C(=O)NCC(=O)O)C(=O)O` [GSH, glutathione]: the Kd on t-bCblC [1] was 206 ± 35 µM; on f-bCblC [6] it was 355 ± 40 µM. On f-bCblC [2] (10 mM GSH, Tm without GSH 42.1 ± 0.4℃), the “melting temperature Tm of f-bCblC in the presence of GSH” value stood at 44.2 ± 0.3 °C. Besides, the “maximal ΔTm (ΔTm max) of f-bCblC” value on f-bCblC [2] (setting [7]) was determined as 2.8 ± 0.3 °C. In addition, the “melting temperature Tm of t-bCblC in the presence of GSH” value at t-bCblC [3] (10 mM GSH, Tm without GSH 41.5 ± 0.3℃) was 45.2 ± 0.3 °C. Besides, the “maximal ΔTm (ΔTm max) of t-bCblC” value at t-bCblC [3] (setting [7]) was 5.2 ± 0.2 °C. Further, the half-maximal activity concentration (AC50) at f-bCblC [4] stood at 3100 ± 300 µM; at t-bCblC [5], 2800 ± 300 µM.
